Test results from ChEMBL document CHEMBL1201862, “PubChem BioAssay data set” (2004).
The source made the active and inactive calls.

What was measured:
Nonstructural protein 1 = Nonstructural protein 1 (Influenza A virus, UniProt Q194T2); assay type: functional, Influenza A virus (A/California/07/2009(H1N1))
[1] = target: Ras and Rab interactor 1/Tyrosine-protein kinase ABL1 (Homo sapiens, UniProt P00519+Q13671); assay type: functional;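 note: biochemical TR-FRET dose-response test measuring inhibition of binding between Rin1 and Abl proteins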
[2] = THP-1 cell cytotoxicity, dose response, cytotoxicity control for Vif-APOBEC3G degradation inhibitor project, THP-1 cells (AID 1117359); assay type: functional; conditions: Human immunodeficiency virus 1, THP-1
[3] = target: Glutathione-S-transferase (Schistosoma japonicum, UniProt Q26513); assay: biotin-GST/anti-GST TR-FRET signal inhibitors, dose response, artefact control for Vif-APOBEC3G degradation inhibitor project, biochemical (AID 1117362); assay type: functional
Glutathione-S-transferase, sequence (Q26513 whole entry): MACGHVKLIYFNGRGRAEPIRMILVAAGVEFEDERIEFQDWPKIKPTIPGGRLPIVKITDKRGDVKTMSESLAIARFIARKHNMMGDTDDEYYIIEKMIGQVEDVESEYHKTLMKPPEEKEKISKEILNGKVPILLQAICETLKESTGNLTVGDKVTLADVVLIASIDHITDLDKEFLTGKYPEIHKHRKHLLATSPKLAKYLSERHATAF

[4] = P. falciparum 3D7-ScDHODH growth inhibitors, dose response, SYBR Green, dry powder samples (AID 1159570); assay type: functional, cell-based;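 note: parasite growth measured after 72 hours of compound exposure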
[5] = HepG2 cell cytotoxicity, dose response, cytotoxicity control, plate reader, dry powder samples (AID 1159569); assay type: functional, cell-based;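 note: inhibitor potency with signal falling toward the positive control level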
[6] = P. falciparum Dd2 growth inhibitors, dose response, SYBR Green, cherry-picked samples (AID 1159567); assay type: functional, cell-based
[7] = P. falciparum Dd2 growth inhibitors, dose response, SYBR Green, dry powder samples (AID 1159566); assay type: functional, cell-based;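 note: potency for growth inhibition with lower SYBR green DNA signal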
[8] = Plasmodium falciparum Dd2 Sybr green parasite growth Measured in Cell-Based and Microorganism Combination System Using Plate Reader - 2153-01_Inhibitor_Dose_DryPowder_Activity_Set3.; assay type: functional
[9] = P. falciparum ATP4 D1247Y mutant growth inhibitors, dose response, NITD609-resistant line, SYBR Green, dry powder (AID 1159571); assay type: functional, cell-based;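 note: parasites synchronized at ring stage by sorbitol before testing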
Genome polyprotein = Genome polyprotein (Hepatitis C virus, UniProt Q2Q167); assay: HCV core protein dimerization inhibitors, dose response, biochemical, TR-FRET (AID 2159); design: species or system Hepacivirus hominis;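 note: blocks dimerization of HCV core protein measured by TR-FRET between tagged core106 pairs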
Genome polyprotein, sequence (Q2Q167 whole entry): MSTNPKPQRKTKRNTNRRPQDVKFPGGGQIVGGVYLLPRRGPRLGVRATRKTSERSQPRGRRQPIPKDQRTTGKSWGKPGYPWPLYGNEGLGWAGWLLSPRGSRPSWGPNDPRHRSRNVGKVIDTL

Large T antigen = Large T antigen (Simian virus 40, UniProt P03070); assay type: functional, Betapolyomavirus macacae;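 note: Confirmatory-stage PubChem screen for compounds that inhibit SV40 T antigen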
Large T antigen, sequence (P03070 whole entry): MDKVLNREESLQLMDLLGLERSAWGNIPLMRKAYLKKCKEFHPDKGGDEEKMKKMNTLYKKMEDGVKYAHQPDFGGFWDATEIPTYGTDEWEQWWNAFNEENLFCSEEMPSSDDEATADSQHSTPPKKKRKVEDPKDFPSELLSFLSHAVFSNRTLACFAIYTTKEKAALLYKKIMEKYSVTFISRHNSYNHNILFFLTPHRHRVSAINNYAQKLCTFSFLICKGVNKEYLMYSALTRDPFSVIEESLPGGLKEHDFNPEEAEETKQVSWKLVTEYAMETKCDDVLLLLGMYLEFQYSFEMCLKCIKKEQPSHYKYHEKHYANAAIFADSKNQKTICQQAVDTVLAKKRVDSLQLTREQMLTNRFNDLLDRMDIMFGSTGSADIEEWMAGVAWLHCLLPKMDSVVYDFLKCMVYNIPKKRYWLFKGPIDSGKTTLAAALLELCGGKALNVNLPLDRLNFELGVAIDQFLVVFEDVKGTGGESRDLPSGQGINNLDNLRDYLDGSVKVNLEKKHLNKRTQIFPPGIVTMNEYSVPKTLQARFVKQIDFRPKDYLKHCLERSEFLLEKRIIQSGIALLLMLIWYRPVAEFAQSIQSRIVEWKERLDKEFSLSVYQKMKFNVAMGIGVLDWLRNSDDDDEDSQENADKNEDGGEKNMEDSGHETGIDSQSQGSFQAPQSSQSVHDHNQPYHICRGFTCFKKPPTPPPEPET

[10] = half-maximal inhibitory concentration for glucagon-like peptide-1 release, STC-1 cell line, dose-response (AID 1117345); assay type: functional, cell-based
[11] = Glucagon-like peptide 1 release potency, NCI-H716 cell line, dose-response, half-maximal inhibitory concentration (AID 1117344); assay type: functional, cell-based
NADPH oxidase 1 = NADPH oxidase 1 (Homo sapiens, UniProt Q9Y5S8); assay: Late-stage luminescence-based cell-based dose response assay to identify inhibitors of NADPH oxidase 1 (NOX1): Synthesized analogs 2.; assay type: functional
NADPH oxidase 1, sequence (Q9Y5S8 whole entry): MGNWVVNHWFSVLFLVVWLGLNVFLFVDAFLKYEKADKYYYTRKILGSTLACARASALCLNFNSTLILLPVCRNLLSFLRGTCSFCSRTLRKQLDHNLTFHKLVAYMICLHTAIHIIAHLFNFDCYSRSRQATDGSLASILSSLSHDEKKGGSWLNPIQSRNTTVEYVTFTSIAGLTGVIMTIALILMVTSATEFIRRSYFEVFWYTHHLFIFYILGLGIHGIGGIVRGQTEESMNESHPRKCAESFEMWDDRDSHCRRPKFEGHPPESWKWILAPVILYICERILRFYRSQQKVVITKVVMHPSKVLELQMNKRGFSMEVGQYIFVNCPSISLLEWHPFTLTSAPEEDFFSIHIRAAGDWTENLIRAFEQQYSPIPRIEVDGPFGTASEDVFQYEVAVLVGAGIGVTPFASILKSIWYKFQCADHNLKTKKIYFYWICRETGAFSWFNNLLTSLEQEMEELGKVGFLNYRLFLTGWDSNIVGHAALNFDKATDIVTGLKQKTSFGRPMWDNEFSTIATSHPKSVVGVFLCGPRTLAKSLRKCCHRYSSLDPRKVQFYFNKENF

[12] = target: Sphingosine 1-phosphate receptor 2 (Homo sapiens, UniProt O95136); assay: Dose Response Cell Based Assay for Antagonists of the S1P2 Receptor. [Related pubchem assays: 856, 736 ]; assay type: functional
Sphingosine 1-phosphate receptor 2, sequence (O95136 whole entry): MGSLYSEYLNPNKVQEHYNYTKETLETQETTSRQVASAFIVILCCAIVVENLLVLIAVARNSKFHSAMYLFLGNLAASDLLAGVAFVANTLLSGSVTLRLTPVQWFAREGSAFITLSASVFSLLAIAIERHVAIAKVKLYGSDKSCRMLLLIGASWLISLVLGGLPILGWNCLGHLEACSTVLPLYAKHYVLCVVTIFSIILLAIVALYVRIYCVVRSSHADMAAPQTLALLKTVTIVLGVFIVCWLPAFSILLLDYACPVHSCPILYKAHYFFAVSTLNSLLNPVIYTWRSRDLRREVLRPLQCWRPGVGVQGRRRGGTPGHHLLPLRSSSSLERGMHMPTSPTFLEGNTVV

[13] = target: 5-hydroxytryptamine receptor 1A (Homo sapiens, UniProt P08908); assay type: functional
[14] = target: Peroxisome proliferator-activated receptor gamma/Nuclear receptor corepressor 2 (Homo sapiens, UniProt P37231+Q9Y618); assay: Counterscreen for NR2E3 inverse agonists: TR-FRET-based biochemical high throughput dose response assay to identify inverse agonists of the interaction between peroxisome proliferator-activated receptor gamma (PPARg) and nuclear receptor co-repressor 2 (NCOR2).; assay type: functional
[15] = target: Photoreceptor-specific nuclear receptor (Homo sapiens, UniProt Q9Y5X4); assay: NR2E3 inverse agonists, dose response, biochemical, TR-FRET (AID 463256); assay type: functional
Photoreceptor-specific nuclear receptor, sequence (Q9Y5X4 whole entry): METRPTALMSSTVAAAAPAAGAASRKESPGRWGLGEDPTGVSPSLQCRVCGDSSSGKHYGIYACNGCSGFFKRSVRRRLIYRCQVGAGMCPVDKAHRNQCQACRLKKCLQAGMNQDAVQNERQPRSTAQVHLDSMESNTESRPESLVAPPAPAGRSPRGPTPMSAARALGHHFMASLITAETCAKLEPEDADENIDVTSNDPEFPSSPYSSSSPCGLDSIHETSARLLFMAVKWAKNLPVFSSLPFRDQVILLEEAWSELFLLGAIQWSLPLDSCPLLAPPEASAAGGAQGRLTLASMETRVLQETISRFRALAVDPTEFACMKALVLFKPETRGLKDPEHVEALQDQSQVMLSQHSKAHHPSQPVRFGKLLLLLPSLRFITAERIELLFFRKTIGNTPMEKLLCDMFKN

Protein Tat = Protein Tat (Human immunodeficiency virus type 1 group M subtype B (isolate HXB2)(HIV-1), UniProt P04608); assay type: functional;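 note: tat binding to TAR RNA read out by fluorescence polarization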
Protein Tat, sequence (P04608 whole entry): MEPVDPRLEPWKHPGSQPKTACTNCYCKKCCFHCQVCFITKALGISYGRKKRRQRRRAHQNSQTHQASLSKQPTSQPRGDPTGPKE

[16] = inhibitors of Vif binding to APOBEC3G peptide, primary screen, biochemical, TR-FRET, GST-Vif 1-94, biotin-A3G peptide, dose response retest (AID 1117319); assay type: functional;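 note: TR-FRET signal of purified GST-Vif binding a biotinylated A3G peptide; inhibitors lower the FRET signal by blocking Vif and A3G binding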
[17] = target: Mitogen-activated protein kinase 10 (Homo sapiens, UniProt P53779); assay: Dose response biochemical screening assay for inhibitors of c-Jun N-Terminal Kinase 3 (JNK3). [Related pubchem assays: 746 ]
Cytochrome P450 2C19 = Cytochrome P450 2C19 (Homo sapiens, UniProt P33261); assay: Cytochrome panel assay with activity outcomes. Panel member name: p450-cyp2c19 Compounds with AC50 equal or less than 10 uM are considered active; assay type: functional; conditions: read-out: AC50
Cytochrome P450 2C9 = Cytochrome P450 2C9 (Homo sapiens, UniProt P11712)
Cytochrome P450 2C9, sequence (P11712 whole entry): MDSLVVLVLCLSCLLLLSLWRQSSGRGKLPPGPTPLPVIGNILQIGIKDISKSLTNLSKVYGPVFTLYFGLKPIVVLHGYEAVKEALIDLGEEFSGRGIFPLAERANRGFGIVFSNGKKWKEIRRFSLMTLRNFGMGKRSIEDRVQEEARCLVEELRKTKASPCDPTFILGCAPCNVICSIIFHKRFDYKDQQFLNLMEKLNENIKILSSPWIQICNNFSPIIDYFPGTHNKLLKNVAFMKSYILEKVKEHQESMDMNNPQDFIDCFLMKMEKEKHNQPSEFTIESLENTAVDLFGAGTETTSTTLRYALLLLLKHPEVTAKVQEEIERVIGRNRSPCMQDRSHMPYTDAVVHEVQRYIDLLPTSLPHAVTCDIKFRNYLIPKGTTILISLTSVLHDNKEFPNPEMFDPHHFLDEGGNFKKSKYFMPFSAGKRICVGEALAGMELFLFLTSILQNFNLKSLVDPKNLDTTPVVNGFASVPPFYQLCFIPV

[18] = test system: Streptococcus sp. 'group A'; assay: growth inhibition of control SK(-) GAS strain, dose response, counter-screen for streptokinase expression inhibitor project, luminescence, kanamycin, BacTiterGlo, confirmation (AID 1900); assay type: functional, organism-based
cells [19] = assay type: functional, cell-based
[20] = inhibitors of intracellular T. cruzi replication, confirmation, NIH3T3 host cells, beta-gal luminescence (AID 2044); assay type: functional, cell-based;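 note: intracellular parasites grown in NIH/3T3 mouse fibroblasts as host cells; luminescent beta-galactosidase reporter signal from transgenic T. cruzi replicating inside host cells; inhibitors lower the luminescence signal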
cells [21] = assay type: functional, cell-based; remark: listed apart in the source
[22] = cytotoxicity toward NIH3T3 fibroblasts, dose response, counter-screen, cell-based, ATP luminescence, mouse fibroblasts (AID 2010); assay type: functional;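 note: cells exposed to compound for about 90 hours before reading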
Streptococcus = assay: Group A Streptococcus viability loss, dose response, counter-screen for streptokinase expression inhibitor project, luminescence, BacTiterGlo (AID 1915); assay type: functional, organism-based;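 note: potency for reduction of bacterial viability or growth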
[23] = target: T1, Type-1 angiotensin II receptor (Homo sapiens, UniProt P30556); assay: AT1 receptor agonists, dose response, selectivity assay for APJ receptor agonist project, cell-based, uHTS hits (AID 488865); assay type: functional;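 note: beta-arrestin recruitment to AT1 measured by enzyme fragment complementation luminescence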
T1 sequence (P30556 whole entry): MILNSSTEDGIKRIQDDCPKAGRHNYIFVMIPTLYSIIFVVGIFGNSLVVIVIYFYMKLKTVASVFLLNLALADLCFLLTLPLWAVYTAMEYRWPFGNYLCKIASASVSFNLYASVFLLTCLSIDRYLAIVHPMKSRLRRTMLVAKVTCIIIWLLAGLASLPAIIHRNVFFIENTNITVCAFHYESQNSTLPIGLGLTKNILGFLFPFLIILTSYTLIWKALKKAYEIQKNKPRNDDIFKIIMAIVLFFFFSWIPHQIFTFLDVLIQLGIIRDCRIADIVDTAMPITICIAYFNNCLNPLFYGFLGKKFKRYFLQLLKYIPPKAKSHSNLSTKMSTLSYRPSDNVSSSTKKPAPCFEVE

INS1 = assay: beta cell apoptosis inhibitors, cytokine rescue, dose response, luminescence, retest (AID 449756); assay type: functional, cell-based; conditions: Rattus norvegicus;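 note: cell death triggered by IL-1 beta plus TNF-alpha plus IFN-gamma mixture; protective hits raise ATP signal compared with cytokine alone wells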
[24] = Shn3 3'UTR reporter inhibitors, dose response, cell-based, Clone20 osteoblasts, firefly luciferase, cherry-picked (AID 624132); assay type: functional;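 note: firefly luciferase luminescence from reporter carrying the Shn3 3'UTR in osteoblasts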
[25] = HepG2 cell cytotoxicity, dose response, cytotoxicity control for Shn3 inhibitor project, CellTiter-Glo, cherry-picked (AID 624134); assay type: functional, cell-based
[26] = control 3'UTR Renilla luciferase suppression, dose response, counter-screen for Shn3 inhibitor project, cell-based, Clone20-Shn3RL, cherry-picked (AID 624133); assay type: functional
[27] = target: T2, Probable nicotinate-nucleotide adenylyltransferase (Staphylococcus aureus (strain N315), UniProt P65502); assay type: functional, Staphylococcus aureus subsp. aureus N315;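 for IC50 Mean: confirmatory dose-response retesting of NadD inhibitor hits first found in an ultra-high-throughput screen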
T2 sequence (P65502 whole entry): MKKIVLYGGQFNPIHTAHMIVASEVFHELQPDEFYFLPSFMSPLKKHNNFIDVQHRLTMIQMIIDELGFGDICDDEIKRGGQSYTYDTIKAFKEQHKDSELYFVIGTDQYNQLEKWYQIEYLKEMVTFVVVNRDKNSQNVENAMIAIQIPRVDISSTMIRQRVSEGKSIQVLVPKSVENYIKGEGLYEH

[28] = target: T2, Probable nicotinate-nucleotide adenylyltransferase; assay type: functional, Staphylococcus aureus subsp. aureus N315; conditions: read-out: IC50_Mean
Paired box protein Pax-8 = Paired box protein Pax-8 (Homo sapiens, UniProt Q06710); assay: inhibitors of PAX8-driven TPO luciferase reporter, dose response, RMG-I cells, cherry-pick (AID 687027); assay type: functional, cell-based;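 note: luciferase reporter driven by Pax8 target thyroperoxidase promoter measured by SteadyGlo luminescence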
Paired box protein Pax-8, sequence (Q06710 whole entry): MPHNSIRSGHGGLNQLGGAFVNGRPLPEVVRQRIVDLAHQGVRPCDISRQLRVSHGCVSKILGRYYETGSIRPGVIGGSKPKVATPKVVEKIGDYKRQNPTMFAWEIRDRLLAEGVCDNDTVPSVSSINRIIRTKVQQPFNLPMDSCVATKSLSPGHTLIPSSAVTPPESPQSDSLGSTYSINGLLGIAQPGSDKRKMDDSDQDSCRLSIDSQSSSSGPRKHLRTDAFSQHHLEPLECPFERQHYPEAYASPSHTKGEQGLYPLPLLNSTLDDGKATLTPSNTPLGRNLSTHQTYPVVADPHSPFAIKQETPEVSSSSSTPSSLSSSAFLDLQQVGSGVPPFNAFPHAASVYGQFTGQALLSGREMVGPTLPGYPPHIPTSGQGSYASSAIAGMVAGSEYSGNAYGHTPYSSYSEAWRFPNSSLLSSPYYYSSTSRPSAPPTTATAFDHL

[29] = PAX2 cell-based inhibition, dose response, selectivity assay for PAX8 inhibitor project, plate reader, dry powder samples (AID 743048); assay type: functional;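 note: HEK293 cells carrying a WT1 promoter luciferase reporter driven by expressed Pax2; potency is for inhibition of Pax2 driven reporter signal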
[30] = cytotoxicity in COV362 ovarian cancer cells, dose response, cytotoxicity control for PAX8 inhibitor project, cell-based, plate reader, dry powder, SA12 (AID 743144); assay type: functional
[31] = A2780 ovarian cancer cell cytotoxicity, dose response, cytotoxicity control, plate reader, dry powder samples (AID 743046); assay type: functional, cell-based
[32] = NIH:OVCAR-3 ovarian cancer cell cytotoxicity, dose response, PAX8 inhibitor project, plate reader, dry powder samples (AID 743044); assay type: functional, cell-based
[33] = PAX5 activity inhibitors, dose response, selectivity assay for PAX8 inhibitor project, cell-based, plate reader, dry powder samples (AID 743047); assay type: functional;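 note: HEK293 cells carrying a Pax5 driven CD19 promoter luciferase reporter; potency of inhibitors that lower reporter luminescence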
[34] = IGROV1 ovarian cancer cell cytotoxicity, dose response, PAX8 inhibitor project, plate reader, dry powder samples (AID 743043); assay type: functional, cell-based; conditions: IGROV-1
[35] = cytotoxicity in OVCAR4 cells, dose response, cytotoxicity control for PAX8 inhibitor project, cell-based, plate reader, dry powder, SA11 (AID 743150); assay type: functional; conditions: OVCAR-4
[36] = cytotoxicity in COV434 cells, dose response, cytotoxicity control for PAX8 inhibitor project, cell-based, plate reader, dry powder, SA7 (AID 743145); assay type: functional
[37] = cytotoxicity in OV-90 ovarian cancer cells, dose response, PAX8 inhibitor project, cell-based, plate reader, dry powder, SA8 (AID 743149); assay type: functional
[38] = cytotoxicity dependent on PAX8, dose response, cell-based, plate reader, dry powder (AID 743049); assay type: functional
Estrogen receptor beta = Estrogen receptor beta (Homo sapiens, UniProt Q92731);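 note: recombinant ER-beta bound to coactivator SRC1 peptide in presence of estradiol agonist; inhibitors block coactivator peptide binding and lower the FRET signal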
Estrogen receptor beta, sequence (Q92731 whole entry): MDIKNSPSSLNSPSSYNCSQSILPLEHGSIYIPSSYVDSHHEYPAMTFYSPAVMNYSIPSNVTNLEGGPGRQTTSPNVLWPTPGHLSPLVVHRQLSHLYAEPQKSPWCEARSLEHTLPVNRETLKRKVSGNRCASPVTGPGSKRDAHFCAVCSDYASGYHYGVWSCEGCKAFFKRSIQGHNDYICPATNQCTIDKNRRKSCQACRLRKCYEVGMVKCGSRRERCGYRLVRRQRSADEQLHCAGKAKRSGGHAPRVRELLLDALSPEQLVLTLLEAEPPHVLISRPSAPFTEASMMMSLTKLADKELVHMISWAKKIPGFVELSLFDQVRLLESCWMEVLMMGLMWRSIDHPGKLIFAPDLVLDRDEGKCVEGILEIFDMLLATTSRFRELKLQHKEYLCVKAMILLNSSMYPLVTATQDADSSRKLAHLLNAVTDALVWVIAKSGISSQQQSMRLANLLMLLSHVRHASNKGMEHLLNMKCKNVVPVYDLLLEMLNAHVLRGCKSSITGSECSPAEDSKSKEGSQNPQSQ

Prothrombin = Prothrombin (Homo sapiens, UniProt P00734); assay: Thrombin 1536 HTS Dose Response Confirmation. [Related pubchem assays: 1046 (Thrombin 1536 HTS; hits were confirmed in this assay)]; assay type: functional
[39] = target: RNA-editing ligase 1, mitochondrial (Trypanosoma brucei brucei, UniProt P86926); assay: TbREL1 ligase inhibitors, dose response, biochemical, fluorescence, Trypanosoma brucei (AID 1117295); assay type: functional
RNA-editing ligase 1, mitochondrial, sequence (P86926 whole entry): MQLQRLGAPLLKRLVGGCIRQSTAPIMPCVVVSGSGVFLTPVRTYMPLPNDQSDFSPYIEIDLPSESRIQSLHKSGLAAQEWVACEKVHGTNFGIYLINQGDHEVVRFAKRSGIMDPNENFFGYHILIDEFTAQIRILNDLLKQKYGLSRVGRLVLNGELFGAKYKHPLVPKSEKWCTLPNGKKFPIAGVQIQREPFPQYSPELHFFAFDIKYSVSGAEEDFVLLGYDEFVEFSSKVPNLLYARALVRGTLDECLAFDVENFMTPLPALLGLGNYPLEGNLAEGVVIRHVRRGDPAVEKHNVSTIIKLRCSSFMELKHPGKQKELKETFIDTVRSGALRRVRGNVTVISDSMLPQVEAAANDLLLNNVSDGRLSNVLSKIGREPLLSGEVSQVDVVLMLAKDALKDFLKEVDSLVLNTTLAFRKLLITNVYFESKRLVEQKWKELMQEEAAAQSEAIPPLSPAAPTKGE

Nonstructural protein 1, sequence (Q194T2 whole entry): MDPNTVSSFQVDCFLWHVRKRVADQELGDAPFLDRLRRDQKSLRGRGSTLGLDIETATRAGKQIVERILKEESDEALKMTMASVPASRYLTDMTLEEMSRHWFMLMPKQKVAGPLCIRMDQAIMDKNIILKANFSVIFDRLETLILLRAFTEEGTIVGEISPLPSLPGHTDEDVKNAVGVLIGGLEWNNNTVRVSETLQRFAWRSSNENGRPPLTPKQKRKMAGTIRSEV

CCc1cccc(NC(=O)CCCCCC2NC(=O)NC2C)c1 (stereo unspecified)
IC50 (Nonstructural protein 1): 0.825 µM (active) | IC50 [1]: 0.00897 µM (active) | CC50 [2]: > 40 µM (active) | IC50 [3]: 9.93 µM (active)

N#C[C@@H]1[C@H](c2ccc(C3=CCCC3)cc2)[C@@H](CO)N1C(=O)NC1CCCC1
AC50 [4]: 15.8 µM (active) | AC50 [5]: 82 µM (active) | AC50 [6]: 0.615 µM (active) | AC50 [7]: 0.395 µM (active) | AC50 [8]: 0.647 µM (active) | AC50 [9]: 0.694 µM (active)

CCOC(=O)c1sc(NC(=S)NC(=O)C2CC2)cc1C
IC50 (Genome polyprotein): > 49.8 µM (not active)

O=C1OC2(c3ccccc31)c1cc(I)c(O)c(I)c1Oc1c2cc(I)c(O)c1I [ERYTHROSINE]
IC50 (Large T antigen): 13 µM (active) | IC50 [10]: 2.93 µM (active) | IC50 [11]: > 40 µM (inactive)

CN1c2ccccc2Sc2cc(NC(=O)CCl)ccc21
IC50 (NADPH oxidase 1): 0.653 µM (active)

O=C(O)c1sc2cc(C(F)(F)F)cnc2c1-c1cccnc1
IC50 [12]: > 30 µM (not active)

CCOC(=O)c1oc2ccccc2c1NC(=O)c1cc(OC)cc(OC)c1
EC50 [13]: > 50 µM (not active)

CN(C)c1ccc(C#Cc2ccc3cc(CCO)oc(=O)c3c2)cc1
IC50 [14]: > 39.8 µM (not active) | IC50 [15]: > 39.8 µM (not active)

COc1ccc(-n2c(Cc3cccn3C)nnc2SCC(N)=O)cc1
IC50 (Protein Tat): > 100 µM (active) | IC50 [16]: > 100 µM (active)

Fc1ccc2nc3[nH]c4ccccc4c3nc2c1
IC50 [17]: 18.4 µM (not active) | AC50 (Cytochrome P450 2C19): 20 µM (inconclusive) | AC50 (Cytochrome P450 2C9): 10 µM (inconclusive)

Cc1cc(C)c2sc(NNC(=O)c3ccc(S(=O)(=O)N4CCc5ccccc5C4)cc3)nc2c1
EC50 [18]: 1.29 µM (active) | EC50 (cells [19]): 41.8 µM (active) | EC50 [20]: 1.22 µM (active) | EC50 (cells [21]): > 350 µM (not active) | EC50 [22]: 1.82 µM (active) | EC50 (Streptococcus): 3.44 µM (active) | EC50 [23]: > 100 µM (inactive) | AC50 (INS1): 1.36 µM (active) | AC50 [24]: 1.8 µM (active) | AC50 [25]: 33.1 µM (active) | AC50 [26]: 1.35 µM (active) | IC50 [27]: 7.44 µM (active) | IC50 [28]: 42.2 µM (active) | AC50 (Paired box protein Pax-8): 2.27 µM (active) | AC50 [29]: 3.1 µM (active) | AC50 [30]: 19.2 µM (active) | AC50 [31]: 6.67 µM (active) | AC50 [32]: 6.31 µM (active) | AC50 [33]: 4.85 µM (active) | AC50 [34]: 8.92 µM (active) | AC50 [35]: 43.4 µM (active) | AC50 [36]: 12.4 µM (active) | AC50 [37]: 20.8 µM (active) | AC50 [38]: 10.3 µM (active)

NC(=Nc1nc2ccccc2o1)NC(=O)c1ccccc1NC(=O)c1ccccc1
IC50 (Estrogen receptor beta): > 50 µM (not active) | IC50 (Prothrombin): > 50 µM (inconclusive)

COC(=O)C1=C(C)N(Cc2ccccc2C(F)(F)F)C(NCc2ccc(C(F)(F)F)cc2)=NC1c1cccc(F)c1 (stereo unspecified)
IC50 [39]: > 96.6 µM (inactive)
